The target in this assay is T1, glucocorticoid receptor (Homo sapiens, UniProt P04150).
T1 construct: endogenous in cells; host or cells: HeLa (ATCC) cell lysate supernatant
T1 sequence (P04150 1-777): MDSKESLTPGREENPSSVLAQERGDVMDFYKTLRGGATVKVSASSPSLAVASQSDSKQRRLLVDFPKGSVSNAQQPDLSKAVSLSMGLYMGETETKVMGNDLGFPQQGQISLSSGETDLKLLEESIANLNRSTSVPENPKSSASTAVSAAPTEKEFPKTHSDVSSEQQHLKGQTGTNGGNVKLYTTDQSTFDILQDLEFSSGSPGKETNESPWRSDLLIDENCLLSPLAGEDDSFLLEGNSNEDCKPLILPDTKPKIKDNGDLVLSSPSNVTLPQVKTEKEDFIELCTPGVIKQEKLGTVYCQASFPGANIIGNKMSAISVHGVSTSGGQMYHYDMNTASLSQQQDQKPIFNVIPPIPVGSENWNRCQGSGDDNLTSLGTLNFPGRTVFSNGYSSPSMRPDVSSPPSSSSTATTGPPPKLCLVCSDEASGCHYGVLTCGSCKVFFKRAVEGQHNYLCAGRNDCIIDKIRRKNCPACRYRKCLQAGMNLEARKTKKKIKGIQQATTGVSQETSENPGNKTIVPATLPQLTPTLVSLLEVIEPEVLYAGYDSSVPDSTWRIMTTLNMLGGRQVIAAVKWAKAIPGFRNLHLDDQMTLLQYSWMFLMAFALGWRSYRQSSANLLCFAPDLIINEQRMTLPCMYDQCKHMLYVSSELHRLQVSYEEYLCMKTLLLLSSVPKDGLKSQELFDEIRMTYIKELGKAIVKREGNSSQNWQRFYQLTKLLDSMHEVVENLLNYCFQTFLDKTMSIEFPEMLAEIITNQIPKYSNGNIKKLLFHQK
As to the kind of experiment: Ligand binding assay (GRBind), 3H-dexamethasone displacement in HeLa cell lysate. Particulars: 3H-DEX tracer. How it is done: Binding Buffer: TEGM (10 mM Tris-HCl, 1 mM EDTA, 10% glycerol, 1 mM betamecaptoethanol, 10 mM Sodium Molybdate, pH 7.2)
50% HAP Slurry: Calbiochem Hydroxylapatite, Fast Flow, in 10 mM Tris, pH 8.0 and 1 mM EDTA.
Wash Buffer: 40 mM Tris, pH7.5, 100 mM KCl, 1 mM EDTA and 1 mM EGTA. 95% EtOH Dexmethasone-methyl-3H, (DEXA*); (Amersham cat#TRK645) Dexamethasone(DEX) (Sigma, cat#01756):
Hydroxylapatite Fast Flow; Calbiochem Cat#391947
25 Molybdate=Molybdic Acid (Sigma, M1651)
5 Cells (Hall R. E., et al., European Journal of Cancer, 30A: 484-490 (1994)) HeLa (ATCC) cultured in RPMI 1640 (Gibed 11835-055) containing 20 mM Hepes, 4 mM L-glu, 10 ug/ml of human insulin (Sigma, 1-0259), 10% FBS and 20 uglml of Gentamicin (Gibco#15710072) are rinsed twice in PBS. Phenol red-free Trypsin-EDTA is diluted in the same PBS 1:10. The cell layers are rinsed with IX Trypsin, extra Trypsin is poured out, and the cell layers are incubated at 37° C. for 2 min. The flask is tapped and checked for signs of cell detachment. Once the cells begin to slide off the flask, the complete media is added. The cells are counted at this point, then diluted to the appropriate concentration and split into flasks or dishes for further culturing (Usually 1:3 to 1:6 dilution).
Preparation of HeLa Cell Lysate
When the cells are 70 to 85% confluent, they are detached as described above, and collected by centrifuging at 1000 g for 10 min at 4° C. The cell pellet is washed twice with TEGM (10 mM Tris-HCl, 1 mM EDTA, 10% glycerol, 1 mM beta-mercaptoethanol, 10 mM Sodium Molybdate, pH 7.2). After the final wash, the cells are resuspended in TEGM at a concentration of 10^7 cells/mL. The cell suspension is snap frozen in liquid nitrogen or ethanol/dry ice bath and transferred to −80° C. freezer on dry ice. Before setting up the binding assay, the frozen samples are left on ice-water to just thaw. Then the samples are centrifuged at 12,500 g to 20,000 g for 30 min at 4° C. The supernatant is used to set-up assay right away. If using 50 μL of supernatant, the test compound can be prepared in 50 μL of the TEGM buffer.
Procedure for Multiple Compound Screening
1×TEGM buffer is prepared, and the isotope-containing assay mixture is prepared in the following order: EtOH (2% final concentration in reaction), 3H-DEX (Amersham Biosciences) and 1×TEGM. [e.g. For 100 samples, 200 JlL (100×2) of EtOH+4.25 JlL of 1:10 ^3H-Dex stock+2300 μL (100×23) 1×TEGM]. The compound is serially diluted, e.g., if starting final conc. is 1 μM, and the compound is in 25 μL of solution, for duplicate samples, 75 μL of 4×1 μM solution is made and 3 μL of 100). 1M is added to 72 μL of buffer, and 1:5 serial dilution.
25 μL of ^3H-DEX (6 nM) trace and 25 μL, compound solution are first mixed together, followed by addition of 50 μL receptor solution. The reaction is gently mixed, spun briefly at about 200 rpm and incubated at 4° C. overnight. 100 μL of 50% HAP slurry is prepared and added to the incubated reaction which is then vortexed and incubated on ice for 5 to 10 min. The reaction mixture is vortexed twice more to resuspend HAP while incubating reaction. The samples in 96-well format are then washed in wash buffer using the FilterMate™ Universal Harvester plate washer (Packard). The washing process transfers HAP pellet containing ligand-bound expressed receptor to Unifilter-96 GFIB filter plate (Packard). The HAP pellet on the filter plate is incubated with […] of MICROSCINT (Packard) scintillant for 30 min before being counted on the TopCount microscintillation counter (Packard). IC50s are calculated using DEX as a reference.

A word on the Ki: it is the dissociation constant of the complex between target and ligand, obtained from inhibition or displacement. Read a high Ki as weaker binding. Turning to `O[C@@]1(CCc2cc(C(F)(F)F)ccn2)CCC2=Cc3c(cnn3-c3ccc(F)cc3)C[C@@]21C1CC1` [Example 32, (4aR,5R)-4a-Cyclopropyl-1-(4-fluorophenyl)-5-{2-[4-(trifluoromethyl)pyridin-2-yl]ethyl}-1,4,4a,5,6,7-hexahydrocyclopenta[f]indazol-5-ol], the Ki is 2.26 nM. The result for `CC[C@]12Cc3cnn(-c4ccc(F)cc4)c3C=C1CC[C@@]2(O)CC1OC(=O)c2ccccc21` (stereo partly drawn) [Example 71, 3-{[(4aS,5R)-4a-Ethyl-1-(4-fluorophenyl)-5-hydroxy-1,4,4a,5,6,7-hexahydrocyclopenta[f]indazol-5-yl]methyl}-2-benzofuran-1(3H)-one] reads 2.97 nM. The result for `NC(=O)c1c(C2CC2)ccnc1CC[C@]1(O)CCC2=Cc3c(cnn3-c3ccc(F)cc3)C[C@@]21C1CC1` [Example 49, 4-Cyclopropyl-2-{2-[(4aR,5R)-4a-cyclopropyl-1-(4-fluorophenyl)-5-hydroxy-1,4,4a,5,6,7-hexahydrocyclopenta[f]indazol-5-yl]ethyl}pyridine-3-carboxamide] reads 2.7 nM; that for `COc1ccnc(CC[C@]2(O)CCC3=Cc4c(cnn4-c4ccc(F)cc4)C[C@@]32C2CC2)c1C(F)C(N)=O` (stereo partly drawn) [Example 66, 2-(2-{2-[(4aR,5R)-4a-Cyclopropyl-1-(4-fluorophenyl)-5-hydroxy-1,4,4a,5,6,7-hexahydrocyclopenta[f]indazol-5-yl]ethyl}-4-methoxypyridin-3-yl)-2-fluoroacetamide], 1.82 nM; that for `CC[C@]12Cc3cnn(-c4ccc(F)cc4)c3C=C1CC[C@@]2(O)CCc1cc(C)ccn1` [Example 33, (4aS,5R)-4a-Ethyl-1-(4-fluorophenyl)-5-[2-(4-methylpyridin-2-yl)ethyl]-1,4,4a,5,6,7-hexahydrocyclopenta[f]indazol-5-ol], 2.33 nM.

Take `CC[C@]12Cc3cnn(-c4ccccc4)c3C=C1CC[C@@]2(O)CC(O)c1ccccn1` (single isomer, unassigned) [Example 67a]: affinity was put at a Ki of 11.3 nM.

`CC[C@]12Cc3cnn(-c4cccnc4)c3C=C1CC[C@@]2(O)CCc1cccc(F)c1C#N` [Example 10, 2-{2-[(4aS,5R)-4a-Ethyl-5-hydroxy-1-(pyridin-3-yl)-1,4,4a,5,6,7-hexahydrocyclopenta[f]indazol-5-yl]ethyl}-6-fluorobenzonitrile] came in with a Ki of 2.59 nM.

Take `NC(=O)C(O)c1ccccc1CC[C@]1(O)CCC2=Cc3c(cnn3-c3ccc(F)cc3)C[C@@]21C1CC1` (single isomer, unassigned) [Example 3b]: the Ki worked out at 1.79 nM. The Ki values of the last two compounds are within 1.5-fold of each other.

The compound `OC(C[C@]1(O)CCC2=Cc3c(cnn3-c3ccc(F)cc3)C[C@@]21C1CC1)c1ccccn1` (stereo partly drawn) [Example 78, (4aR,5R)-4a-Cyclopropyl-1-(4-fluorophenyl)-5-[2-hydroxy-2-(pyridin-2-yl)ethyl]-1,4,4a,5,6,7-hexahydrocyclopenta[f]indazol-5-ol] registered a Ki of 2.96 nM. In the case of `CC[C@]12Cc3cnn(-c4ccc(F)cc4)c3C=C1CC[C@@]2(O)CC(O)c1ccccn1` (stereo partly drawn) [Example 68, (4aS,5R)-4a-Ethyl-1-(4-fluorophenyl)-5-[2-hydroxy-2-(pyridin-2-yl)ethyl]-1,4,4a,5,6,7-hexahydrocyclopenta[f]indazol-5-ol] it was 2.72 nM.

In the case of `O=C(NC1(CO)CC1)c1ccccc1CC[C@]1(O)CCC2=Cc3c(cnn3-c3ccc(F)cc3)C[C@@]21C1CC1` [Example 46, 2-{2-[(4aR,5R)-4a-Cyclopropyl-1-(4-fluorophenyl)-5-hydroxy-1,4,4a,5,6,7-hexahydrocyclopenta[f]indazol-5-yl]ethyl}-N-[1-(hydroxymethyl)cyclopropyl]benzamide], the affinity corresponds to a Ki of 1.99 nM. In the case of `CC[C@]12Cc3cnn(-c4ccc(F)cc4)c3C=C1CC[C@@]2(O)CCc1ncccc1F` [Example 17, (4aS,5R)-4a-Ethyl-1-(4-fluorophenyl)-5-[2-(3-fluoropyridin-2-yl)ethyl]-1,4,4a,5,6,7-hexahydrocyclopenta[f]indazol-5-ol] it was 1.44 nM.
